Laboratory results: article PMC7155171, “Probing the Open Global Health Chemical Diversity Library for Multistage-Active Starting Points for Next-Generation Antimalarials” (ACS Infectious Diseases, 2020)
Like-named read-outs stand apart in the source and are kept apart here.

Assays:
[1] = system: P. falciparum (NF54) stage V gametocytes; assay: Stage V gametocyte viability assay (MitoTracker Red CMXRos high content imaging); assay type: cell-based, Plasmodium falciparum; conditions: Plasmodium falciparum; for inhibition at 2 µM: read-out: Stg V Gam primary screen: Inhibition % (2uM) (n=2)
[2] = system: P. berghei liver stage (PbLuc); assay: P. berghei luciferase liver stage (PbLuc) assay in HepG2-A16-CD81 hepatocytes; assay type: cell-based, Plasmodium berghei; conditions: Plasmodium berghei; for IC50: HepG2-A16-CD81, 12pt dose response, read-out: PbLuc 12pt dose response: IC50; for Emax: HepG2-A16-CD81, 48 h, 12pt dose response, maximum inhibition
[3] = system: HepG2-A16-CD81 hepatocytes; assay: HepG2 cytotoxicity screening (CellTiter-Glo); conditions: for HepG2 cytotoxicity 12pt dose response: Maximum inhibition (%): 12pt dose response
[4] = HepG2 cytotoxicity screening (CellTiter-Glo); conditions: human, uninfected HepG2-A16-CD81 (EGFP) hepatocytes
[5] = biological target: recombinant firefly luciferase (Photinus pyralis, UniProt P08659); assay: biochemical; conditions: dose response; for Emax: maximum inhibition, read-out: rLuc inhibition dose response: Maximum inhibition (%); for IC50: read-out: rLuc inhibition dose response: IC50
[6] = NF54, read-out: Stg V Gam dose response IC50 (µM) (n=3), 10-point dose response, n=3, 72 h
[7] = NF54, 72 h, read-out: Stg V Gam dose response IC50 (µM) (n=3), 10-point dose response, n=3, 72 h

recombinant firefly luciferase, sequence (P08659 whole entry): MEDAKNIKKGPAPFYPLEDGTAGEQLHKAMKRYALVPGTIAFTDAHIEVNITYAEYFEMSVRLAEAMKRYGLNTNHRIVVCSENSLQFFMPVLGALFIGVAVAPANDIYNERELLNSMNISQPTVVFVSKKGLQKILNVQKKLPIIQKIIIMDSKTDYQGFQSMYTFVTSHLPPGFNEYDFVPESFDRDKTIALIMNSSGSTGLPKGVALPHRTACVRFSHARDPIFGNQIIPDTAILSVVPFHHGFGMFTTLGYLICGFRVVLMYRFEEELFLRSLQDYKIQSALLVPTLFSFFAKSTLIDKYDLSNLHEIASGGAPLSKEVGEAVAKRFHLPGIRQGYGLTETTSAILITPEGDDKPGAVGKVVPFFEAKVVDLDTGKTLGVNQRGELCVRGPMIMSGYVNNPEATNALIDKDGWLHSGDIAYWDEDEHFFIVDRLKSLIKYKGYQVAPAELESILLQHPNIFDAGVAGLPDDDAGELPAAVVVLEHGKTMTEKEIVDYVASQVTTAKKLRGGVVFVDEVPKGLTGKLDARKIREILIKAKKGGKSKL

| Structure (SMILES) | IC50 [1, 6] [µM] | inhibition at 2 µM ([1]; NF54, Table S6, 2uM, n=2, 72 h) [%] | IC50 [1, 7] [µM] | inhibition at 2 µM ([1]; NF54, 72 h) [%] | IC50 [2] [µM] | Emax [2] [%] | HepG2 cytotoxicity 12pt dose response: Maximum inhibition (%) [3] [%] | IC50 [4] [µM] | inhibition at 2 µM [4] [%] | Emax [5] [%] | IC50 [5] [µM] | HepG2 Cytotoxicity primary screen (2uM): % Inhibition [3] [%] |
| --- | --- | --- | --- | --- | --- | --- | --- | --- | --- | --- | --- | --- |
| CCCc1nc2c(c(C)c(C)n2CCN(C)C)c(N)c1CC [DDD01026700, CCCC1=C(CC)C(N)=C2C(C)=C(C)N(CCN(C)C)C2=N1] | 0.97 | 49.2 | – | – | – | – | – | – | – | – | – | – |
| CCc1c(-c2ccccc2)nc2c(c(C)c(C)n2CCN(C)C)c1N [DDD01026714, CCC1=C(N=C2N(CCN(C)C)C(C)=C(C)C2=C1N)C1=CC=CC=C1] | – | – | 0.868 | 56.1 | – | – | – | – | – | – | – | – |
| CC(C)Nc1nc2c(c(NC3CC3)n1)CCN(C1CCOCC1)CC2 [DDD01029612, CC(C)NC1=NC2=C(CCN(CC2)C2CCOCC2)C(NC2CC2)=N1] | – | – | 4.48 | 57 | – | – | – | – | – | – | – | – |
| Cc1cccc(CN2Cc3[nH]nc(COCCO)c3C2)n1 [DDD01030906, CC1=CC=CC(CN2CC3=C(C2)C(COCCO)=NN3)=N1] | – | – | 1.47 | 82.1 | – | – | – | – | – | – | – | – |
| CC(C)Nc1nc2c(c(NC3CC3)n1)CCN(Cc1nccn1C)CC2 [DDD01031405, CC(C)NC1=NC2=C(CCN(CC3=NC=CN3C)CC2)C(NC2CC2)=N1] | – | – | 2.65 | 58.7 | – | – | – | – | – | – | – | – |
| Cc1cccc(CN2C[C@@H]3COC[C@H](NS(C)(=O)=O)[C@@H]3C2)n1 [DDD01032715, CC1=CC=CC(CN2C[C@@H]3COC[C@H](NS(C)(=O)=O)[C@@H]3C2)=N1] | 1.54 | 70.6 | – | – | – | – | – | – | – | – | – | – |
| Cc1cccc(CN2CCC3(CCN(c4cccnc4)C3=O)C2)n1 (stereo not shown) [DDD01033290, CC1=CC=CC(CN2CCC3(CCN(C3=O)C3=CC=CN=C3)C2)=N1] | 0.46 | 75.8 | – | – | – | – | – | – | – | – | – | – |
| CO[C@H]1CCN(Cc2cccc(C)n2)[C@@H]2CN(Cc3cccnc3)C[C@H]12 [DDD01036932, CO[C@H]1CCN(CC2=CC=CC(C)=N2)[C@@H]2CN(CC3=CC=CN=C3)C[C@H]12] | – | – | 0.276 | 78.9 | – | – | – | – | – | – | – | – |
| CCCc1cncnc1N1CCC(NCc2cc3ccccc3[nH]2)CC1 [UCSD-0834906] | – | – | – | – | 1.84 | 97.5 | 32.8 | > 25 | 7.01 | 31.4 | > 25 | – |
| COc1cccc(-c2noc3c2CN(c2ncnc4c2CCC4)CC3)c1 [UCSD-0837523] | – | – | – | – | 5.79 | 84.4 | 52 | 8.51 | -0.62 | 15.5 | > 25 | – |
| Cc1csc2ncnc(N3CCC(Cn4cc(C(C)(C)N)nn4)CC3)c12 [UCSD-0838044] | – | – | – | – | 11.4 | 71.7 | 46.5 | > 25 | – | 21.9 | > 25 | 4.60 |
| COc1ccc2cc(C3CN(C(=O)N(C)C)CCO3)ccc2c1 (stereo not shown) [UCSD-0838135] | – | – | – | – | < 0.000141 | 82.4 | 6.4 | > 25 | -0.4 | 91.8 | 3.45 | – |
| COCc1noc(-c2ccc(N3CCCCC3CO)nc2)n1 (stereo not shown) [UCSD-0838277] | – | – | – | – | < 0.000141 | 82.5 | 0.196 | > 25 | -1.51 | 73.7 | 6.29 | – |
| Nc1nccc(N2CCCC(CO)(CCOc3ccccc3)C2)n1 (stereo not shown) [UCSD-0838947] | – | – | – | – | 6.46 | 89.7 | 51.4 | > 25 | -2.96 | 8.22 | > 25 | – |
| Nc1nc(CCC(=O)N2CCOC(CC3CCCCC3)C2)cs1 (stereo not shown) [UCSD-0838977] | – | – | – | – | 15 | 93.7 | 8.43 | > 25 | – | 7.71 | > 25 | -10.55 |
| CC(=O)c1ccc(N2CCC(CO)(CCOc3ccccc3)CC2)nc1 [UCSD-0839049] | – | – | – | – | 14.6 | 105 | 60.3 | > 25 | – | 13.2 | > 25 | 17.47 |
| Cc1nc(N2CC[C@@H](NC(=O)c3cnccn3)[C@H](O)C2)c2ccsc2n1 [UCSD-0839060] | – | – | – | – | 10.4 | 90.6 | 48.7 | > 25 | – | 0.656 | > 25 | -14.64 |
| c1ccc(-c2ccc(C3CNCCO3)nc2)cc1 (stereo not shown) [UCSD-0839460] | – | – | – | – | < 0.000141 | 80.4 | -1.08 | > 25 | – | 89.9 | 0.22 | 6.27 |
| COc1cccc(-c2noc(C3CCN(Cc4cn(C)nc4C)C3)n2)c1 (stereo not shown) [UCSD-0839537] | – | – | – | – | 9.44 | 86.1 | 4.79 | > 25 | 5.3 | 60.2 | 24 | – |
| COc1cc(CNCc2ccnc(N3CCCCC3)c2)cc(OC)c1 [UCSD-0841255] | – | – | – | – | 11.3 | 85 | 36.6 | > 25 | – | 1.69 | > 25 | -2.79 |
| CC(C)c1n[nH]c(C(=O)Nc2ccccn2)c1Br [UCSD-0842403] | – | – | – | – | < 0.000282 | 97.3 | 31.1 | > 50 | 24.9 | 97.1 | < 0.0244 | – |
| COc1c(C)cnc(CN2CCC(N(C)C(C)C(N)=O)CC2)c1C (stereo not shown) [UCSD-0844796] | – | – | – | – | 11.7 | 87.4 | -0.307 | > 25 | – | -2.93 | > 25 | 1.63 |
| Cc1noc(NC(=O)c2ccc(OC(F)(F)F)cc2)n1 [UCSD-0844950] | – | – | – | – | 8.23 | 93.2 | 50.3 | 23.7 | 4.58 | 29.1 | > 25 | – |
| Cc1noc(NC(=O)c2ccc(Br)s2)n1 [UCSD-0844983] | – | – | – | – | 14.7 | 88.4 | 28.5 | > 25 | – | -1.54 | > 25 | 5.11 |
| CC(C)N(CC(N)=O)Cc1csc(COc2ccc(F)cc2)n1 [UCSD-0845986] | – | – | – | – | 14.6 | 97.4 | 68.7 | 23.1 | – | 5.14 | > 25 | 6.02 |
| Cc1cc(CN2CCN(C(c3ccccc3)c3ccccc3)CC2)no1 [UCSD-0846071] | – | – | – | – | 8.97 | 104 | 4.68 | > 25 | 0.21 | 14.1 | > 25 | – |
| Cc1ccoc1C(=O)NC1CCN(Cc2csc3c(F)cccc23)CC1 [UCSD-0846562] | – | – | – | – | 11.1 | – | 25.1 | > 25 | – | 3.24 | > 25 | -2.96 |
